According to patent publication US10294205B2, “Allenamide as an orthogonal handle for selective modification of cysteine in peptides and proteins” (Nanyang Technological University, priority 2014, dated 2019):
Entries after “also recorded” stand apart in the source; their conditions may differ. Where no end group is shown, it is not given here. allenamide 1a = not defined here

Assays:
[1] = biological target: T1, BSA (Bos taurus, UniProt P02769); test: Labelling BSA with 6-8, SDS-PAGE analysis; type: biochemical, bovine; conditions: 10 nmol label, 1 nmol BSA, Tris-HCl pH 7.4, 37° C., 30 min
T1 construct: purchased
Procedure: 0.1 μmol/mL solution of BSA in H2O (10 μL, 1 nmol), 1.0 μmol/mL solution of 6, 7 and 8 in H2O (10 μL each, 10 nmol) and 80 μL of Tris-HCl buffer (pH 7.4) were mixed in 1 mL eppendorf tubes and incubated at 37° C. for 30 min.

[2] = Reaction of allenamide 1a with cysteine methyl ester (free thiol and amino groups)
Procedure: […] Reaction mixture was stirred for 30 minutes after which TLC confirmed the complete consumption of 1a. THF was evaporated on rotary evaporator and product was extracted two times in dichloromethane (2.5 mL each). Solvent was evaporated and product was purified by column chromatography (5% MeOH in dichloromethane) to get 32.8 mg (76% yield) of white solid (modified cysteine).

[3] = Reaction of 1a with lysine, serine and methionine under similar conditions; conditions: similar conditions as for cysteine methyl ester
[4] = test system: glutathione (GSH; 2); test: Modification of glutathione (2) using allenamide 1a; type: biochemical
Procedure: 6.5 mg glutathione (0.021 mmol) was dissolved in 0.5 mL ammonium carbonate buffer (pH 8.0) in a 4 mL glass vial. To this solution was added 7.3 mg of allenamide 1a (0.042 mmol; 2 eq.) in 0.5 mL THF and resulting solution was mixed well using a pipette. […] This mixture was centrifuged at 8000 rpm for 5 min. Liquid was carefully decanted and the solid precipitated was washed two times with THF. The precipitate after final washing was dried in vacuum to give 9.9 mg (97% yield) of white solid (modified glutathione).

[5] = test system: peptides CGKSRF (3), KSCGRF (4) and YDSQCFHRW (5); test: Modification of peptides 3, 4 and 5 with allenamide 1a; type: biochemical
Procedure: 100 μL of the peptide solution (250 μM in ammonium carbonate buffer of pH 8.0) was mixed with an equal amount of the solution of 1a (2.5 mM in ammonium carbonate buffer containing 5% THF). After pipette mixing, reaction mixture was allowed to stand at room temperature for 10-20 minutes. […] Site selectivity was established by LC-MS/MS.
(§1) The irreversibility of the conjugation product was tested with peptide 5 and GSH (2). No reversion to starting material 5 was observed when the conjugation product of 5 and 1a was incubated with excess (100 equivalent) glutathione for overnight at 37° C. […] The irreversibility of specific cysteine labelling may thus enable the possibility for the protein modification in intracellular environment.

[6] = biological target: T2, bovine insulin (reduced chain A and chain B) (Bos taurus, UniProt P01317); test: Modification of DTT-reduced bovine insulin using 1a; type: biochemical
T2 construct: purchased
Procedure: After promising results in simple peptides, similar modification of cysteine residue in more complicated peptide sequences was also examined. A more complex pair of peptides generated from the DTT treatment of bovine insulin was tested (FIG. 10).
10 equivalents of solid DTT was added to 2 ml of a 10 mM solution of bovine insulin in 50 mM ammonium carbonate buffer of pH 8. The mixture after pipette mixing was allowed to stand at 70° C. under nitrogen atmosphere for 10 minutes. LCMS was done after due time and cooling to room temperature to confirm complete reduction of disulfide bonds. […] Similarly the m/Z values corresponding to chain A were obtained as 779, 1169 and 2338 corresponding to +3, +2 and +1 charge on chain A (molecular weight 2337.97). To 1 ml of the reduced insulin mixture was added 25 equivalents of 1a dissolved in 500 μL of THF and reaction mixture was allowed to stand at room temperature for 30 min. after pipette mixing. […] Thus, the expected molecular weight of modified chain B was 3743.67 (3397.67+346) and that of chain A was 3029.97 (2337.97+692) and the observed m/z values for modified chain B were at 750, 937, 1249 and 1873 corresponding to +5, +4, +3 and +2 charge and for chain A were at 1011 and 1515 corresponding to +3 and +2 charge on the chain. The site selectivity was further confirmed by MS/MS (FIGS. 11 and 12, respectively).

[7] = biological target: T3, BSA (Bovine Serum Albumin) (Bos taurus, UniProt P02769); test: Modification (alkylation) of BSA with compound 1a, trypsin digestion and LC-MS/MS; type: biochemical; conditions: DTT-reduced BSA, 30 min at 37° C., pH 8.0
T3 construct: purchased
Procedure: 6.6 mg of BSA (0.1 μmol) was dissolved in 1 ml of ammonium carbonate buffer (pH 8.0). To this was added 2.3 mg solid DTT (15 μmol) and after pipette mixing resulting mixture was incubated over night at 37° C. 3.7 mg of 1a (21 μmol) dissolved in 1 ml of ammonium carbonate buffer (5% THF) was then added to it and incubated again for 30 min at 37° C. After due time, protein was purified through nano-separation filtration. The purified protein was subjected to trypsin digestion and LC-MS/MS using standard protocols (FIG. 13).

[8] = test system: peptide 5 (YDSQCFHRW); test: Modification of cysteine in peptide 5 using allenamides 1b-d; type: biochemical; conditions: peptide sequence YDSQCFHRW; as determined by LCMS
Procedure: After pipette mixing, reaction mixture was allowed to stand at room temperature for 10-20 minutes. […] Site selectivity was established by LC-MS/MS.

[9] = Irreversibility of the conjugation products against excess thiol (LCMS); type: physicochemical; conditions: excess (100 equivalent) glutathione, overnight at 37° C.
Procedure: as §1

[10] = biological target: TEM1 β-Lactamase (Bla) (Escherichia coli, UniProt P62593); test: Labelling TEM1 β-lactamase with 7, SDS-PAGE analysis; type: biochemical, bacterial; conditions: Tris-HCl pH 7.4, 37° C., 30 min
Procedure: For TEM1 β-Lactamase, 0.1 μmol/mL solution of β-Lactamase in H2O (10 μL, 1 nmol), 1.0 μmol/mL solution of 7 in H2O (10 μL, 10 nmol) and 80 μL of Tris-HCl buffer (pH 7.4) were mixed in a 1 mL eppendorf tube and incubated at 37° C. for 30 min. After due time, reaction mixture was subjected to SDS-PAGE analysis which confirmed no labelling. In second part of this experiment, 0.1 μmol/mL solution of β-Lactamase (1 mL) was heated with 1.0 μmol/mL solution of DTT (1 mL) at 80° C. for 10 min. After cooling down to room temperature, a 10 μL aliquot of this mixture was mixed with 10 μL of 7 (2.0 μmol/mL in H2O) and 80 μL of Tris-HCl buffer (pH 7.4) and incubated at 37° C. for 30 min.

T2 sequence (P01317 25-54 limits assumed): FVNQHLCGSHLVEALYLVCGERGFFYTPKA
T2 sequence (P01317 85-105 limits assumed): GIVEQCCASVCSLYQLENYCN
Chain of TEM1 β-Lactamase (Bla) (P62593 24-286 limits assumed): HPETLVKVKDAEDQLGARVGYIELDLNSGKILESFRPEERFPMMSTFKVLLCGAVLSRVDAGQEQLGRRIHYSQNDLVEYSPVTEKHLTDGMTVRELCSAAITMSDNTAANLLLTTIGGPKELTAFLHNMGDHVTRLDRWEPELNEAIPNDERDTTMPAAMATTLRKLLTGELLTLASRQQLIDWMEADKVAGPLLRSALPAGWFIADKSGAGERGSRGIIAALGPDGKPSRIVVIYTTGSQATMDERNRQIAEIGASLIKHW
T1 sequence (P02769 25-607): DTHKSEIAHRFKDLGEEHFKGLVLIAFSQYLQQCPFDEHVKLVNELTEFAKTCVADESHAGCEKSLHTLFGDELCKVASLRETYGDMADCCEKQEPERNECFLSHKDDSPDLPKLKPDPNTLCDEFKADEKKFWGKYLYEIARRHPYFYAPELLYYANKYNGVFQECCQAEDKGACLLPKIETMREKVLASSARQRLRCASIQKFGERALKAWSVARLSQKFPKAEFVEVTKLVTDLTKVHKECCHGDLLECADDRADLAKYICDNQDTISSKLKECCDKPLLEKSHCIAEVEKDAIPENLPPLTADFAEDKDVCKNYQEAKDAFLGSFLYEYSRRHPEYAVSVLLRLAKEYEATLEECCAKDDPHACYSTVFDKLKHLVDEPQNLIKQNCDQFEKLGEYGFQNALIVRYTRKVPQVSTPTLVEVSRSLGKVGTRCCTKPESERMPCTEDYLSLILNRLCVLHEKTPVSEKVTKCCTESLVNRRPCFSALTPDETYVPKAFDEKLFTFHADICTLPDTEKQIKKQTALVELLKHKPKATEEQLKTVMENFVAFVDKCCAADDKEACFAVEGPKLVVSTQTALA
T3 sequence (P02769 25-607): as above

**Q.** For C=C=CC(=O)NCCNC(=S)Nc1ccc2c(c1)C(=O)OC21c2ccc(O)cc2Oc2cc(O)ccc21 (single isomer, unassigned) [Compound 6], which “Labelling of BSA (SDS-PAGE)” value [1] is on record?
**A.** labelling to have taken place successfully

**Q.** For C=C=CC(=O)NCc1ccccc1 [Allenamide 1a, N-benzylbuta-2,3-dienamide], which “Reaction at the free amino group of cysteine methyl ester” value ([2]; even when 1a was used in excess) is on record?
**A.** No reaction

**Q.** What about the “Group of cysteine methyl ester involved in the reaction” value ([2]; gives product 1aa) of the same compound?
**A.** Only the free thiol group

**Q.** And the “Product formation with lysine, serine and methionine” value [3]?
**A.** no product was obtained

**Q.** What about the “Conversion of glutathione (LCMS)” value ([4]; 2 eq. 1a, ammonium carbonate buffer pH 8.0/THF, after 15 min) of the same compound?
**A.** complete conversion

**Q.** What about the “Site of modification in glutathione (NMR, LC-MS/MS)” value ([4]; cysteine thiol versus amino groups) of the same compound?
**A.** modification at the cysteine residue

**Q.** What about the “Site of modification in peptides 3, 4 and 5 (LCMS and LC-MS/MS)” value [5] of the same compound?
**A.** selectively at cysteine

**Q.** What about the “Conversion of peptides 3, 4 and 5 (LCMS)” value ([5]; 250 μM peptide, 2.5 mM 1a, pH 8.0, room temperature, 10-20 minutes) of the same compound?
**A.** quantitative conversion

**Q.** And the “Reaction of other amino acid residues (histidine, lysine, tyrosine and other reactive side chains) with 1a” value ([5]; even after standing overnight)?
**A.** did not give any reaction

**Q.** What about the “Modification of reduced insulin chains (LCMS)” value ([6]; 25 equivalents of 1a, room temperature, 30 min) of the same compound?
**A.** expected modification

**Q.** What about the “Molecules of allenamide included in chain A” value ([6]; chain A, from molecular weight increment 692) of the same compound?
**A.** four molecules

**Q.** What about the “Molecules of allenamide included in chain B” value ([6]; chain B, from molecular weight increment 346) of the same compound?
**A.** two molecules

**Q.** And the “Modification of cysteine residues of BSA (LC-MS/MS of tryptic peptides)” value [7]?
**A.** All cysteine residues in the detected peptides were found to be modified

**Q.** For C=C=CC(=O)NC1CCCCC1 [Allenamide 1c, N-cyclohexylbuta-2,3-dienamide], which Conversion [8] is on record?
**A.** Quantitative

**Q.** Which Conversion [8] does the source give for C=C=CC(=O)Nc1cccc2ccccc12 [Allenamide 1d, N-(naphthalene-1-yl)buta-2,3-dienamide] here?
**A.** Quantitative

**Q.** With C=C=CC(=O)NCC(=O)OCC [Allenamide 1b, ethyl 2-(buta-2,3-dienamido)acetate] as the compound, how does the Conversion [8] read?
**A.** Quantitative

**Q.** With “conjugation product of 5 and 1a: peptide YDSQCFHRW (5) modified at cysteine with allenamide 1a (YDSQC(allenamide 1a)FHRW-OH; not fully specified; reading uncertain)” as the compound, how does the “Reversion of conjugation product to starting material 5” value [9] read?
**A.** No reversion

**Q.** Which “Labelling of BSA (SDS-PAGE)” value [1] does the source give for C=C=CC(=O)NCCNC(=O)CCCCC[N+]1=C(/C=C/C=C2/N(C)c3ccccc3C2(C)C)C(C)(C)c2ccccc21.[Cl-] [Compound 7] here?
**A.** labelling to have taken place successfully

**Q.** And the “Labelling of β-Lactamase after DTT treatment (SDS-PAGE)” value ([10]; DTT at 80° C. for 10 min before)?
**A.** successful labelling; also recorded: successful labeling was observed

**Q.** What about the “Labelling of β-Lactamase without DTT treatment (SDS-PAGE)” value ([10]; no free cysteine) of the same compound?
**A.** no labelling; also recorded: no labeling was observed
